Source: ChEMBL document CHEMBL5715949, “Discovery of a selective irreversible BMX inhibitor for prostate cancer” (ACS Chem Biol, 2013)
Active and inactive are the calls of the source. The calls are words filed in the database; no cut-off is given here.

What was measured:
RV-1 [1] = experiment: Antiproliferative activity against human RV-1 cells assessed as reduction in cell viability at 1. 5 to 20 uM incubated for 3 days by tryphan blue assay; format: functional, cell-based; details: dose 5-20 µM, time 3.0 day
[2] = Cytotoxicity against mouse BaF3 cells assessed growth inhibition incubated for 2 to 5 days by CellTiter-Glo assay; format: toxicity, cell-based; details: time 2-5 day
BaF3 [3] = experiment: Antiproliferative activity against mouse BaF3 cells expressing TEL-fused BMX assessed growth inhibition incubated for 2 to 5 days by CellTiter-Glo assay; format: functional, cell-based; details: time 2-5 day
BaF3 [4] = experiment: Antiproliferative activity against mouse BaF3 cells expressing TEL-fused JAK1 assessed growth inhibition incubated for 2 to 5 days by CellTiter-Glo assay; format: functional; details: time 2-5 day
BaF3 [5] = experiment: Antiproliferative activity against mouse BaF3 cells expressing TEL-fused JAK2 assessed growth inhibition incubated for 2 to 5 days by CellTiter-Glo assay; format: functional; details: time 2-5 day
BaF3 [6] = experiment: Antiproliferative activity against mouse BaF3 cells expressing TEL-fused JAK3 assessed growth inhibition incubated for 2 to 5 days by CellTiter-Glo assay; format: functional; details: time 2-5 day
BaF3 [7] = experiment: Antiproliferative activity against mouse BaF3 cells expressing TEL-fused TYK2 […] mutant assessed growth inhibition incubated for 2 to 5 days by CellTiter-Glo assay; format: functional; details: time 2-5 day
BaF3 [8] = experiment: Antiproliferative activity against mouse BaF3 cells expressing TEL-fused BLK assessed growth inhibition incubated for 2 to 5 days by CellTiter-Glo assay; format: functional; details: time 2-5 day
RV-1 [9] = experiment: Down regulation of BMX protein expression in human RV-1 cells expressing wild type BMX at 5 uM incubated for 72 hrs by western blot analysis; format: functional, cell-based
RV-1 [10] = experiment: Down regulation of BMX protein expression in human RV-1 cells expressing BMX C496S mutant at 5 uM incubated for 72 hrs by western blot analysis; format: functional, cell-based
[11] = Down regulation of BMX protein expression in human RV-1 cells expressing wild type BMX assessed protein expression level at 2.5 uM pre incubated for 4 hrs followed by compound wash out and additon of CHX and measured after 16 hrs by immunoblot analysis (reference value: 0.98 to 1.01); format: functional
[12] = Down regulation of BMX protein expression in human RV-1 cells expressing wild type BMX assessed protein expression level at 2.5 uM pre incubated for 4 hrs followed by compound wash out and additon of CHX and measured after 24 hrs by immunoblot analysis (reference value: 0.98 to 1.01); format: functional
[13] = Down regulation of BMX protein expression in human RV-1 cells expressing BMX C496S mutant assessed protein expression level at 2.5 uM pre incubated for 4 hrs followed by compound wash out and additon of CHX and measured after 16 hrs by immunoblot analysis (reference value: 1.01 to 1.13); format: functional
[14] = Down regulation of BMX protein expression in human RV-1 cells expressing BMX C496S mutant assessed protein expression level at 2.5 uM pre incubated for 4 hrs followed by compound wash out and additon of CHX and measured after 24 hrs by immunoblot analysis (reference value: 1.01 to 1.13); format: functional
[15] = molecular target: Cytoplasmic tyrosine-protein kinase BMX (Homo sapiens) (UniProt P51813); experiment: Inhibition of BMX (unknown origin) at < 10 uM by Z'LYTE assay
Cytoplasmic tyrosine-protein kinase BMX (Homo sapiens), sequence (P51813 whole entry): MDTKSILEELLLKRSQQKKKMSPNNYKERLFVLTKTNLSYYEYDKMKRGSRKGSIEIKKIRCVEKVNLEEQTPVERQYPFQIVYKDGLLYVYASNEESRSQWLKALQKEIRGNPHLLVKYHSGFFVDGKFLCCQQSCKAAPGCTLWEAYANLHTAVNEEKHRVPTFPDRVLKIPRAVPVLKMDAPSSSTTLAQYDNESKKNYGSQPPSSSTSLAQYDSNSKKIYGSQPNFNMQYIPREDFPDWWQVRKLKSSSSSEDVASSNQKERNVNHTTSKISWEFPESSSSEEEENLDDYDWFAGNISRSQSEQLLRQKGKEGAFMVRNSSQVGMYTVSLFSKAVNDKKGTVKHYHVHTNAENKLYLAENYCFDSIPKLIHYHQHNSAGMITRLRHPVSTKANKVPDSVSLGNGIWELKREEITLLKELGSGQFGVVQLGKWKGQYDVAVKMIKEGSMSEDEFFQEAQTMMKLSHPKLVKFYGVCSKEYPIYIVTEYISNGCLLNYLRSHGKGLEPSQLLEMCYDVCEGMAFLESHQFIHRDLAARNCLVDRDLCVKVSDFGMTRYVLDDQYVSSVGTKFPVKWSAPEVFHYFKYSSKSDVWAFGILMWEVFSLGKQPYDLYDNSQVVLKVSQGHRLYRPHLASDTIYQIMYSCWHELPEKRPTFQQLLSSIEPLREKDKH

[16] = Induction of cell cycle arrest in human RV-1 cells assessed as accumulation of cells at G1 phase at 200 nM incubated for 5 days by propidium iodide staining based flow cytometric analysis (reference value: 59.7 %); format: functional; details: time 5 day
[17] = Induction of cell cycle arrest in human RV-1 cells assessed as accumulation of cells at G2/M phase at 200 nM incubated for 5 days by propidium iodide staining based flow cytometric analysis (reference value: 11.4 %); format: functional; details: time 5 day
[18] = Induction of cell cycle arrest in human RV-1 cells assessed as accumulation of cells at S phase at 200 nM incubated for 5 days by propidium iodide staining based flow cytometric analysis (reference value: 28.9 %); format: functional; details: time 5 day
[19] = Inhibition of PI3K/AKT/mTOR signalling pathway in human RV-1 cells assessed as decrease in AKT phosphorylation at T308 residue at 200 nM incubated for 4 hrs by immunoblot analysis; format: cell-based
[20] = Inhibition of PI3K/AKT/mTOR signalling pathway in human RV-1 cells assessed as decrease in AKT phosphorylation at S473 residue at 200 nM incubated for 4 hrs by immunoblot analysis; format: cell-based
[21] = Inhibition of PI3K/AKT/mTOR signalling pathway in human RV-1 cells assessed as decrease in PRAS40 phosphorylation at T246 residue at 200 nM incubated for 4 hrs by immunoblot analysis; format: cell-based
[22] = Inhibition of PI3K/AKT/mTOR signalling pathway in human RV-1 cells assessed as decrease in 4EBP phosphorylation at T37/46 residue at 200 nM incubated for 5 days by immunoblot analysis; format: cell-based; details: time 5.0 day
[23] = Inhibition of PI3K/AKT/mTOR signalling pathway in human RV-1 cells assessed as decrease in S6K phosphorylation at T389 residue at 200 nM incubated for 5 days by immunoblot analysis; format: cell-based; details: time 5.0 day

C=CC(=O)N1CCC[C@@H](n2nc(-c3ccc(Oc4ccccc4)cc3)c3c(N)ncnc32)C1
Activity (RV-1 [1]): Active

CCC(=O)Nc1cc(-n2c(=O)ccc3cnc4ccc(NS(C)(=O)=O)cc4c32)ccc1C
GI50 [2]: > 10 µM
GI50 (BaF3 [3]): > 10 µM
GI50 (BaF3 [4]): > 10 µM
GI50 (BaF3 [5]): > 10 µM
GI50 (BaF3 [6]): > 10 µM
GI50 (BaF3 [7]): > 10 µM
GI50 (BaF3 [8]): > 10 µM
Activity (RV-1 [9]): inactive
Activity (RV-1 [10]): inactive
Activity [11]: 0.64
Activity [12]: 0.72
Activity [13]: 0.8
Activity [14]: 0.51

Cl.NC1(c2ccc(-c3nc4ccn5c(=O)[nH]nc5c4cc3-c3ccccc3)cc2)CCC1
inhibition [15]: inactive
Activity [16]: 60%
Activity [17]: 10.9%
Activity [18]: 29.1%
inhibition [19]: Active
inhibition [20]: Active
inhibition [21]: Active
inhibition [22]: Active
inhibition [23]: Active
